The values that follow come from patent publication US10179927B2, “Electrochemical detection of microorganisms” (priority 2014, dated 2019).

The subject of one assay is Escherichia coli. Kind of assay: Suitability of colorimetric detection compounds for bioelectrochemical detection of Escherichia coli. Conditions: compound used for colorimetric detection of Escherichia coli. The format is cell-based. An excerpt: Bioelectroanalytical techniques are emerging as ways to enumerate and scrutinize microbial systems. But there is still need in the art for technologies specifically designed for bioelectroanalytical detection of FIB. […] The latter, in particular, makes them unsuitable in self-powering systems.

In assay [1] the test system is E. coli. As to conditions: Perez et al., cited from earlier work.
Assay [2] deals with mixed culture of E. coli and A. hydrophila. Kind of assay: Detection time of mixed culture of A. hydrophila and E. coli in ECs. The format is cell-based, Escherichia coli; Aeromonas hydrophila. As to conditions: 44.5° C.; E. coli constant 5×10^5 CFU mL^−1; A. hydrophila from 5×10^2-5×10^5 CFU mL^−1 (FIG. 6). Here is the method: (§1) Escherichia coli strain BL21 was selected to represent a FIB of human origin that contains the uidA and lacZ genes, i.e. a FC, whereas Aeromonas hydrophila (DSM 6173) is an environmental organism that has the lacZ gene but which is not considered a coliform. All organisms were cultured aerobically for 20 h. E. coli was grown in Luria Bertani (Lennox) medium at 37° C., and A. hydrophile at 30° C. in tryptone soy broth (TSB) in a shaking incubator.
(§2) The resulting overnight cultures were diluted in sterile modified M9 medium (Na2HPO4.7H2O (126 mM); KH2PO4 (110 mM); NH4Cl (93 mM); NaCl (42 mM); 1 mL/L vitamin stock solution; tryptone 12.5 g/L; HEPES: 6 g/L; and macro nutrients). The carbon source was either D-galacturonic acid or D-glucuronic acid (3.75 g/L) to achieve a final inoculum density in the range of 1.0×10^0, 5.0×10^0, 5.0×10^1, 5.0×10^2, 5.0×10^3, 5.0×10^4, and 5.0×10^5 CFU mL^−1 in both electrochemical system and the bioelectrochemical system.
Conical ECs with a working volume of 10 mL were used with a customized Teflon cap to accommodate a three electrode configuration along with gas fittings to maintain a moist anaerobic atmosphere. Carbon felt working electrodes (1×1×0.318 cm) (VWR, Singapore) were kept for 24 h in 1 M HCl and stored in deionized (DI) water before use. The electrodes were connected to titanium wire (0.25 mmØ, Sigma-Aldrich) using a nylon nut and bolt. A coiled titanium wire was used as counter electrode and an Ag/AgCl reference electrode (78 mm, 6 mm Outer Ø, Biologic, France) was connected using a 1 M KCl in 1.5% agar salt bridge. […]
(§3) Following reporter supplement and inoculation with the test microorganism, the ECs were connected to a multichannel potentiostat (Biologic, France) and cyclic voltammetry (CV) and differential pulse voltammetry (DPV) were performed immediately. Data acquisition was recorded by EC-Lab software (Biologic, France). […] A detection event was calculated as 4 times the standard deviation of the baseline and detection times are expressed as the mean of triplicate analyses unless stated otherwise. […]

In assay [3] the test system is Escherichia coli strain BL21. The assay is described as follows: Chronoamperometric detection of E. coli with electrochemically active reporters in three-electrode electrochemical systems (ECs). It is filed as cell-based. As to conditions: for Detection time (±std dev): chronoamperometry in ECs, reporter 50 μM; for Detection time for E. coli: inoculum sizes between 5×10^5-5×10^3, ECs (Table 1). How it is done: (§4) Resorufin (TCI-Europe), 2-hydroxy-1,4-naphthoquinone (2H14NQ) (TCI-Europe), 5-hydroxy-1,4-naphthoquinone (5H14NQ) (TCI-Europe) and 5,8-dihydroxy-1,4-naphthoquinone (58H14NQ) (Sigma-Aldrich) were obtained commercially and added to M9 medium in their unconjugated form to achieve a working concentration of 50 μM. Resorufin glycoconjugates (resorufin-β-d-galactopyranoside and resorufin-β-d-glucopyranoside) were obtained commercially (Sigma-Aldrich), whereas 2-hydroxy-1,4-naphthoquinone-β-d-galactopyranoside (2H14NQGal) and 2-hydroxy-1,4-naphthoquinone-β-d-glucopyranoside (2H14NQG1u) were specifically synthesized by Sussex Research Ltd. All reporters were added to a final concentration of 50 μM. Stock concentrations (1.0×10^−3 M) of 2H14NQ and 5H14NQ were prepared by first dissolving in 10 μL of 2 M NaOH and then making up to volume in Type II water (Veolia) whereas 58H14NQ (1.0×10^−3 M) was prepared in 1:1 DMSO:Type II water aliquots. Both stock solutions were stored at −20° C. until needed. Conjugated reporters were maintained as 1 mM stock solutions in Type II water and stored at 5° C.
as §1, §2
(§5) Conical ECs with a working volume of 10 mL were used with a customized Teflon cap to accommodate a three electrode configuration along with gas fittings to maintain a moist anaerobic atmosphere. Carbon felt working electrodes (1×1×0.318 cm) (VWR, Singapore) were kept for 24 h in 1 M HCl and stored in deionized (DI) water before use. The electrodes were connected to titanium wire (0.25 mmØ, Sigma-Aldrich) using a nylon nut and bolt. A coiled titanium wire was used as counter electrode and an Ag/AgCl reference electrode (78 mm, 6 mm Outer Ø, Biologic, France) was connected using a 1 M KCl in 1.5% agar salt bridge. The assembled cell was then filled with 1 M KCl solution ending in a 4 mm glass frit (CoralPor™, Biologic, France). The entire assembly was then autoclaved (121° C. for 15 min). Nine mL of degassed modified M9 medium was added to the ECs and supplemented with a reporter to a final concentration of 5.0×10^−5 M in 10 mL working volume. The ECs were then inoculated with the targeted test organism to achieve a final working volume of 10 mL. The headspace was flushed continuously with sterile humidified N2. The ECs were operated at 30° C., 37° C. or 44.5° C. Stirring was maintained continuously with a magnetic stirrer in the dark to prevent photo-bleaching of the light sensitive mediators.
Following reporter supplement and inoculation with the test microorganism, the ECs were connected to a multichannel potentiostat (Biologic, France) and cyclic voltammetry (CV) and differential pulse voltammetry (DPV) were performed immediately. Data acquisition was recorded by EC-Lab software (Biologic, France). Chronoamperometry (CA) was applied for up to 24 h to detect redox active reporter moieties. A detection event was calculated as 4 times the standard deviation of the baseline and detection times are expressed as the mean of triplicate analyses unless stated otherwise. […]

The test system of assay [4] is E. coli. Kind of assay: Current from unconjugated redox active reporter moieties mediating electron transfer between E. coli and the electrode in ECs. It is filed as cell-based, Escherichia coli. Conditions: 5×10^5 CFU mL^−1 of E. coli; for Maximum recorded current in ECs: unconjugated reporter 50 μM. How it is done: as §4, §1, §2
as §5, with “The ECs were then inoculated with the targeted test organism to achieve a final working volume of 10 mL. The headspace was flushed continuously with sterile humidified N2. The ECs were operated at 30° C., 37° C. or 44.5° C. Stirring was maintained continuously with a magnetic stirrer in the dark to prevent photo-bleaching of the light sensitive mediators.” left out
as §3

Assay [5] relates to E. coli. The assay is described as follows: Current from unconjugated redox active reporter moieties with E. coli in self-powering bioelectrochemical systems (BES, microbial fuel cells). The format is cell-based, Escherichia coli. Conditions: 1 kΩ load, ambient temperature. How it is done:
as §4, with “5° C. […]” for “5° C.”
Dual chamber U-tube BESs, in the form of microbial fuel cells (MFCs), were constructed with two 90° 28/15 ball-to-plain-end and socket-to-plain-end glass quick fit elbows (17 mm O.D.×1.8 mm wall thickness) (VWR, Singapore) to form the anode and cathode chambers (Sund et al., Appl. Microbiol. Biotechnol. 2007; 76:561-568.). […] A 1 kΩ load was applied across the circuit and potential difference was recorded using an eDAQ e-corder® data acquisition system (ED 1621-16 channel recorder) equipped with Chart™ software (Bronjo Medi, Singapore) at a rate of 1 data point every 5 min. […]
Naphthoquinones are cheap redox active molecules which are compatible with E. coli and can be readily conjugated to pyranose rings (Rau et al. Environ. Sci. Technol. 2002; 36:1497-1504; Park and Zeikus. Appl. Environ. Microbiol. 2000; 66:1292-1297). […]

[6] abbreviates: 37° C., inoculum 5 × 10^2 CFU mL^−1.
[7] abbreviates: 37° C., inoculum 5 × 10^3 CFU mL^−1.
Setting [8] is: 37° C., inoculum 5 × 10^4 CFU mL^−1.
Where [9] appears, read: 37° C., inoculum 5 × 10^5 CFU mL^−1.

Each structure is given as a SMILES string. Where two headings read alike, the source gives them in different places. Marks after values point to notes of the source that are not given here.

As for `Nc1ccc(O[C@@H]2O[C@H](CO)[C@H](O)[C@H](O)[C@H]2O)cc1` [4-APgal, 4-aminophenyl-β-d-galactopyranoside], in the assay on Escherichia coli, the “Suitability for bioelectrochemical detection” value (“Suitability” below) is “not well suited for bioelectrochemical detection”. In addition, the Detection time is on record as 10 h in the assay with E. coli [1] (1 CFU mL^−1 (laboratory sample)) and 7.3 h with E. coli [1] (4.5 CFU mL^−1 (marine sample)).

In the case of `O=C(O)[C@H]1O[C@@H](Oc2ccc([N+](=O)[O-])cc2)[C@H](O)[C@@H](O)[C@@H]1O` [4-NPglu, 4-nitrophenol-β-d-glucuronidase], the “Suitability” value with Escherichia coli is listed as “not well suited for bioelectrochemical detection”.

Regarding `O=C1C=C(O[C@@H]2O[C@H](CO)[C@@H](O)[C@H](O)[C@H]2O)C(=O)c2ccccc21` [2H14NQGlu, 2-hydroxy-1,4-naphthoquinone-β-d-glucopyranoside], the “Detection time, mixed culture” value in assay [2] lay in the range of 125 to 172 min. In addition, the “Detection time (±std dev)” value in assay [3] (30° C., inoculum 5 × 10^2 CFU mL^−1) is reported as 832* minutes; in assay [3] (30° C., inoculum 5 × 10^3 CFU mL^−1), 574* minutes; in assay [3] (30° C., inoculum 5 × 10^5 CFU mL^−1) it was 168* minutes; in assay [3] (setting [6]) it was 339(±41) minutes; in assay [3] (setting [7]), 187(±31) minutes; in assay [3] (setting [8]), 142(±11) minutes. The “Detection time (±std dev)” value in assay [3] (setting [9]) was 120(±21) minutes. Moreover, the Detection time in assay [3] (44.5° C., 10 organism, FIG. 7) is 19 h; in assay [3] (44.5° C., 500 organisms, FIG. 7), 12.5 h; in assay [3] (44.5° C., 5000 organisms, FIG. 7), approximately 9 h; in assay [3] (44.5° C., "CFU mL^−1 of E. coli" (number not given), FIG. 7), approximately 19 h; in assay [3] (44.5° C., inoculum size 500 CFU mL^−1, FIG. 7), “less than 10 h”. Further, in assay [3], the “Detection time for E. coli” value fell in the range of 120 to 188 min.

Turning to `O=c1ccc2nc3ccc(O[C@@H]4O[C@H](CO)[C@@H](O)[C@H](O)[C@H]4O)cc3oc-2c1` [ResGlu, resorufin-β-d-glucopyranoside], the “Detection time (±std dev)” value in assay [3] (setting [6]) is 431(±29) minutes; in assay [3] (setting [7]), 397(±52) minutes; in assay [3] (setting [8]) it was 309(±33) minutes; in assay [3] (setting [9]), 259(±19) minutes. The Detection time in assay [3] (inoculum size 5×10^3 CFU mL^−1, ECs) came out at 6.6 h. The “Detection time for E. coli” value in assay [3] was in the range of 258 to 397 min.

Consider `O=C1C=C(O)C(=O)c2ccccc21` [2H14NQ, 2-hydroxy-1,4-naphthoquinone], for which, in the assay on E. coli [4], the “Maximum recorded current in ECs” value is approximately 100 μA. For the same compound, in the assay on E. coli [4] (ECs), the “Maximum current relative to that achieved with 5H14NQ” value is reported as approximately 14 times and the “Maximum current relative to that observed with 58H14NQ” value is reported as approximately 25 times. Besides, the “Current observed in BES” value in the assay on E. coli [5] is given as 40 μA.

`O=C1C=CC(=O)c2c(O)cccc21` [5H14NQ, 5-hydroxy-1,4-naphthoquinone]: the “Maximum recorded current in ECs” value in the assay with E. coli [4] is recorded as approximately 7 μA. Besides, in the assay on E. coli [5], the “Current observed in BES” value was determined as 6 μA.

As for `O=C1C=C(O[C@@H]2O[C@H](CO)[C@H](O)[C@H](O)[C@H]2O)C(=O)c2ccccc21` [2H14NQGal, 2-hydroxy-1,4-naphthoquinone-β-d-galactopyranoside], the “Detection time (±std dev)” value in assay [3] (setting [6]) is 413(±14) minutes; in assay [3] (setting [7]) it was 359(±13) minutes; in assay [3] (setting [8]) it was 143(±17) minutes; in assay [3] (setting [9]) it was 113(±13) minutes. For the same compound, in assay [3] (inoculum equivalent to 5×10^3 CFU mL^−1 of Perez et al., n=3), the Detection time was 6.87 h.

For `O=C1C=CC(=O)c2c(O)ccc(O)c21` [58H14NQ, 5,8-dihydroxy-1,4-naphthoquinone], the “Maximum recorded current in ECs” value in the assay on E. coli [4] was approximately 4 μA. In addition, the “Current observed in BES” value in the assay with E. coli [5] is recorded as 2.5 μA.

In the case of `O=C(O)[C@H]1O[C@@H](Oc2cccc3cccnc23)[C@H](O)[C@@H](O)[C@@H]1O` [8-hydroxyquinoline glucuronide], the “Suitability” value in the assay with Escherichia coli is on record as “not well suited for bioelectrochemical detection”.
